Results as given in ChEMBL document CHEMBL3244141, “Synthesis and analgesic activity of some long-acting piperidinospiro derivatives of methadone” (1978).

Tests used:
Rattus norvegicus [1] = species on record: Rattus norvegicus; experiment: animal or person; assay type: functional; conditions: Sprague-Dawley, Tail, po, 24 h
Rattus norvegicus [2] = experiment: Analgesic activity in po dosed Sprague-Dawley rat assessed as inhibition of warm-water tail withdrawal reflex by measuring dose required to produce withdrawal latency >4 seconds measured every hour of 24 hrs relative to methadone; assay type: functional

Row | Structure (SMILES) | ED50 (Rattus norvegicus [1]) [mg/kg] | Ratio (Rattus norvegicus [2])
1 | CCC(=O)C(CCN1CCC2(CCCc3ccccc32)CC1)(c1ccccc1)c1ccccc1.O=C(O)C(=O)O | 0.07 | 212
2 | CCC(OC(C)=O)C(CCN1CCC2(CCCc3ccccc32)CC1)(c1ccccc1)c1ccccc1.O=S(=O)(O)O (stereo unspecified) | 0.14 | 106
3 | CCC(O)C(CCN1CCC2(CCCc3ccccc32)CC1)(c1ccccc1)c1ccccc1 (racemic) | 0.14 | 106
